{"source": "patent US11427596B2", "about": "“Metal-free solvent-free synthesis of fused-pyrido heterocycles and biomedical applications” (Indian Institute of Technology Indore, priority 2019, dated 2022)", "system": "Mycobacterium bovis", "format": "cell-based", "details": "virulent/opportunistic multidrug resistant Mycobacterium bovis (BCG), incubation 48 hrs, n=3"}
{"smiles": "Cc1ccc(-c2nc(COCc3cn(CCN4C(=O)C(=O)c5ccccc54)nn3)cc3oc(C)cc23)o1", "note": "[compound 26, 1-(2-(4-(((2-Methyl-4-(5-methylfuran-2-yl)furo[3,2-c]pyridin-6-yl)methoxy)methyl)-1H-1,2,3-triazol-1-yl)ethyl)indoline-2,3-dione]", "values": [{"measurement": "concentration range in which active (antituberculosis activity)", "result": "70 to 100", "unit": "µM"}]}
